# Experimental data: patent publication US12139520B2 (priority 2020, dated 2024)
# Bridge positions count the residues as written; N and C are the ends. Square brackets hold non-standard residues; d marks the D form. Peptide text beside a SMILES is read from it. Hyp = O=C(O)[C@@H]1C[C@@H](O)CN1; Cit = NC(=O)NCCC[C@H](N)C(=O)O
# How the values were obtained:
# [1] = molecular target: T1, hAMY3 receptor (Homo sapiens, UniProt O60896+P30988); experiment: cAMP assay for in vitro receptor activation, hAMY3-R; type: cell-based; details: cAMP assay, hAMY3 receptor; read-out: hAMY3R EC50
# T1 sequence (P30988 25-474): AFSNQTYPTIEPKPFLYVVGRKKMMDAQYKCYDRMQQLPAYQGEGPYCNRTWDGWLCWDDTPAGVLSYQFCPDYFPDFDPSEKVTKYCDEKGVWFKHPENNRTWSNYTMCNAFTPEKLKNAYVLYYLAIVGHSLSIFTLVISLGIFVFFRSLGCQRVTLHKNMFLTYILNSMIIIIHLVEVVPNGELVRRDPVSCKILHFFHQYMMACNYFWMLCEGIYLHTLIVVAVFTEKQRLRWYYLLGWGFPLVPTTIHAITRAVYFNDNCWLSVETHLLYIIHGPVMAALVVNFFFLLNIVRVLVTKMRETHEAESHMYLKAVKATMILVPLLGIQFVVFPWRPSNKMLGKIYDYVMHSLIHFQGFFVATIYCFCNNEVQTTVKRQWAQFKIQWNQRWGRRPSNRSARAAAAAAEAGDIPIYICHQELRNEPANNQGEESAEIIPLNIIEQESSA
# T1 sequence (O60896 24-148 partner): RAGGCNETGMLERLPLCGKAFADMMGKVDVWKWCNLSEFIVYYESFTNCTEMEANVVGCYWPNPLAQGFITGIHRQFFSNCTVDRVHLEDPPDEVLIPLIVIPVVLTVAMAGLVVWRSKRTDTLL
# How it was run: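 Graded compound concentrations were applied for 30 min at room temperature to stably hAMY3-expressing cells in DPBS, 0.05% casein, 0.5 mM IBMX; cAMP detected by TR-FRET.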
# [2] = molecular target: hAM1 receptor (Homo sapiens, UniProt O60895+Q16602); experiment: cAMP assay for in vitro receptor activation, hAM1-R; type: cell-based; details: cAMP assay, hAM1 receptor; read-out: hAM1R EC50
# How it was run: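 Monoclonal stable hAM1-overexpressing cells, thawed from frozen stock; 8000 cells/well in DPBS + 0.05% casein + 0.5 mM IBMX; read-out cAMP.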
# [3] = Physical stability of peptide analogues (Thioflavin T fibrillation); type: physicochemical; details: maximum ThT signal normalized between hAMY maximum and buffer background; 40° C., shaking, four days; pH 7 per table title
# How it was run: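 Samples are stressed at 40 °C for four days, being shaken at 700 rpm before each 10-min fluorescence reading of 4 μM Thioflavin T. Buffers were pH 4 acetate or pH 7 phosphate. Reported values are smoothed maximum ThT signals as a percentage of the hAMY-to-background range.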
# Sequence of hAM1 receptor (Q16602 23-461): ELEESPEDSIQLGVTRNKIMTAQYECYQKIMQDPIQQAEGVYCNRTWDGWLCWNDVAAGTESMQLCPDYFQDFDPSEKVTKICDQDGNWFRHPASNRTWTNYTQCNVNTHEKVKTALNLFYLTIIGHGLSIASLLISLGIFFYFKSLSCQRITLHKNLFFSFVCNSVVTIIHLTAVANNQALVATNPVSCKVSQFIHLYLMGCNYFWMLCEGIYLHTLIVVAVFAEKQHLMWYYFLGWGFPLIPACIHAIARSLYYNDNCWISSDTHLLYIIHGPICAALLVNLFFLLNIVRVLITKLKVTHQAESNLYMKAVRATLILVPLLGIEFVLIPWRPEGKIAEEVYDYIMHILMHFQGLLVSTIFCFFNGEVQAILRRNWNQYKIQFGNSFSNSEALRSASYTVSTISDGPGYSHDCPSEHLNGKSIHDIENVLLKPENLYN
# Sequence of hAM1 receptor (O60895 43-175 partner): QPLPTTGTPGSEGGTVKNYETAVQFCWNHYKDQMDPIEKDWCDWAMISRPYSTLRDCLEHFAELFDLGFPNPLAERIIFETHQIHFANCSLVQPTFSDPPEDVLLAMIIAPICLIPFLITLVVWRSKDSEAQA
SMILES,EC50 [1] [nM],EC50 [2] [nM],Max ThT signal (%) [3] [%]
CC[C@H](C)[C@H](NC(=O)[C@H](CCC(N)=O)NC(=O)[C@H](Cc1c[nH]cn1)NC(=O)[C@H](C)NC(=O)[C@H](CC(C)C)NC(=O)[C@H](CCCNC(=N)N)NC(=O)[C@H](CCC(N)=O)NC(=O)[C@@H](NC(=O)[C@@H](NC(=O)[C@@H]1CSSC[C@H](NC(=O)[C@@H](N)CCCCN)C(=O)N[C@@H](CC(N)=O)C(=O)N[C@@H]([C@@H](C)O)C(=O)N[C@@H](C)C(=O)N[C@@H]([C@@H](C)O)C(=O)N1)[C@@H](C)O)C(C)C)C(=O)N[C@@H](Cc1ccc(O)cc1)C(=O)N[C@@H](CCC(N)=O)C(=O)N[C@H](C(=O)N[C@@H](CC(=O)O)C(=O)N[C@@H](CCCCN)C(=O)N[C@@H](CC(=O)O)C(=O)N[C@@H](CCCCN)C(=O)N[C@@H](CC(=O)O)C(=O)N[C@@H](CC(N)=O)C(=O)N[C@H](C(=O)N[C@@H](C)C(=O)N1CCC[C@H]1C(=O)N1CCC[C@H]1C(=O)N[C@H](C(=O)N[C@@H](CC(N)=O)C(=O)N[C@H](C(=O)NCC(=O)N[C@@H](CO)C(=O)N[C@@H](CC(N)=O)C(=O)NCC(=O)N1C[C@H](O)C[C@H]1C(N)=O)C(C)C)[C@@H](C)O)C(C)C)[C@@H](C)O [compound 195] (H-KCNTATCTVQRLAHQIYQTDKDKDNVAPPTNVGSNG[Hyp]-NH2; disulfide 2-7; N-terminus assumed),0.112,> 5000,6.100
CC[C@H](C)[C@H](NC(=O)[C@H](CCC(N)=O)NC(=O)[C@H](Cc1c[nH]cn1)NC(=O)[C@H](C)NC(=O)[C@H](CC(C)C)NC(=O)[C@H](CCCNC(N)=O)NC(=O)[C@H](CCC(N)=O)NC(=O)[C@@H](NC(=O)[C@@H](NC(=O)[C@@H]1CSSC[C@H](NC(=O)CN)C(=O)N[C@@H](CCCNC(=N)N)C(=O)N[C@@H](Cc2ccccc2)C(=O)NCC(=O)N[C@@H]([C@@H](C)O)C(=O)N1)[C@@H](C)O)C(C)C)C(=O)N[C@@H](Cc1ccc(O)cc1)C(=O)N[C@@H](CCC(N)=O)C(=O)N[C@@H](Cc1ccccc1)C(=O)N[C@H](C(=O)N[C@@H](CC(=O)O)C(=O)N[C@@H](CCCCN)C(=O)N[C@@H](CC(=O)O)C(=O)N[C@@H](CCCCN)C(=O)N[C@@H](CC(=O)O)C(=O)N[C@@H](CC(N)=O)C(=O)N[C@H](C(=O)N[C@@H](C)C(=O)N1CCC[C@H]1C(=O)N[C@@H](CCCNC(=N)N)C(=O)N[C@@H](CO)C(=O)N[C@@H](CCCCN)C(=O)N[C@H](C(=O)N[C@@H](CO)C(=O)N1CCC[C@H]1C(=O)N[C@@H](CCC(N)=O)C(=O)NCC(=O)N1C[C@H](O)C[C@H]1C(N)=O)C(C)C)C(C)C)[C@@H](C)O [compound 305] (H-GCRFGTCTVQ[Cit]LAHQIYQFTDKDKDNVAPRSKVSPQG[Hyp]-NH2; disulfide 2-7),0.085,> 5000,24.600
CC[C@H](C)[C@H](NC(=O)[C@H](CCC(N)=O)NC(=O)[C@H](Cc1c[nH]cn1)NC(=O)[C@H](C)NC(=O)[C@H](CC(C)C)NC(=O)[C@H](CCCNC(=N)N)NC(=O)[C@H](CCC(N)=O)NC(=O)[C@@H](NC(=O)[C@@H](NC(=O)[C@@H]1CSSC[C@H](NC(=O)[C@@H](N)CCCCN)C(=O)N[C@@H](CC(N)=O)C(=O)N[C@@H]([C@@H](C)O)C(=O)N[C@@H](C)C(=O)N[C@@H]([C@@H](C)O)C(=O)N1)[C@@H](C)O)C(C)C)C(=O)N[C@@H](Cc1ccc(O)cc1)C(=O)N[C@@H](Cc1ccccc1)C(=O)N[C@H](C(=O)N[C@@H](CC(=O)O)C(=O)N[C@@H](CCCCN)C(=O)N[C@@H](CC(=O)O)C(=O)N[C@@H](CCCCN)C(=O)N[C@@H](CC(=O)O)C(=O)N[C@@H](CC(N)=O)C(=O)N[C@H](C(=O)N[C@@H](C)C(=O)N1CCC[C@H]1C(=O)N1CCC[C@H]1C(=O)N[C@H](C(=O)N[C@@H](CC(N)=O)C(=O)N[C@H](C(=O)NCC(=O)N[C@@H](CO)C(=O)N[C@@H](CC(N)=O)C(=O)NCC(=O)N1C[C@H](O)C[C@H]1C(N)=O)C(C)C)[C@@H](C)O)C(C)C)[C@@H](C)O [compound 181] (H-KCNTATCTVQRLAHQIYFTDKDKDNVAPPTNVGSNG[Hyp]-NH2; disulfide 2-7; N-terminus assumed),0.082,> 5000,8.800

# The next compounds have a lower EC50 [1] than those just listed; values first:
EC50 [1] [nM],EC50 [2] [nM],Max ThT signal (%) [3] [%],SMILES
0.007,> 5000,2.100,CC[C@H](C)[C@H](NC(=O)[C@H](CCC(N)=O)NC(=O)[C@H](Cc1c[nH]cn1)NC(=O)[C@H](C)NC(=O)[C@H](CC(C)C)NC(=O)[C@H](Cc1c[nH]c2ccccc12)NC(=O)[C@H](CCC(N)=O)NC(=O)[C@@H](NC(=O)[C@@H](NC(=O)[C@@H]1CSSC[C@H](NC(=O)CN)C(=O)N[C@@H](CCCNC(=N)N)C(=O)N[C@@H]([C@@H](C)O)C(=O)NCC(=O)N[C@@H]([C@@H](C)O)C(=O)N1)[C@@H](C)O)C(C)C)C(=O)N[C@@H](Cc1ccc(O)cc1)C(=O)N[C@@H](CCC(N)=O)C(=O)N[C@@H](Cc1ccccc1)C(=O)N[C@H](C(=O)N[C@@H](CC(=O)O)C(=O)N[C@@H](CCCCN)C(=O)N[C@@H](CC(=O)O)C(=O)N[C@@H](CCCCN)C(=O)N[C@@H](CC(=O)O)C(=O)N[C@@H](CC(N)=O)C(=O)N[C@H](C(=O)N[C@@H](C)C(=O)N1CCC[C@H]1C(=O)N[C@@H](CCCNC(=N)N)C(=O)N[C@H](C(=O)N[C@@H](CC(N)=O)C(=O)N[C@H](C(=O)NCC(=O)N1CCC[C@H]1C(=O)N[C@@H](CC(N)=O)C(=O)NCC(=O)N[C@@H](Cc1ccc(O)cc1)C(N)=O)C(C)C)[C@@H](C)O)C(C)C)[C@@H](C)O [compound 332] (H-GCRTGTCTVQWLAHQIYQFTDKDKDNVAPRTNVGPNGY-NH2; disulfide 2-7; N-terminus assumed)
0.047,> 5000,20.050,CC[C@H](C)[C@H](NC(=O)[C@H](CCCCN)NC(=O)[C@@H](NC(=O)[C@H](CCCNC(=N)N)NC(=O)[C@@H]1CCCN1C(=O)[C@H](C)NC(=O)[C@@H](NC(=O)[C@H](CC(N)=O)NC(=O)[C@H](CC(=O)O)NC(=O)[C@H](CCCCN)NC(=O)[C@H](CC(=O)O)NC(=O)[C@H](CCCCN)NC(=O)[C@H](CC(=O)O)NC(=O)[C@@H](NC(=O)[C@H](Cc1ccccc1)NC(=O)[C@H](CCC(N)=O)NC(=O)[C@H](Cc1ccc(O)cc1)NC(=O)[C@@H](NC(=O)[C@H](CCC(N)=O)NC(=O)[C@H](Cc1c[nH]cn1)NC(=O)[C@H](C)NC(=O)[C@H](CC(C)C)NC(=O)[C@H](Cc1c[nH]c2ccccc12)NC(=O)[C@H](CCC(N)=O)NC(=O)[C@@H](NC(=O)[C@@H](NC(=O)[C@@H]1CSSC[C@H](NC(=O)CN)C(=O)N[C@@H](CCCNC(=N)N)C(=O)N[C@@H]([C@@H](C)O)C(=O)NCC(=O)N[C@@H]([C@@H](C)O)C(=O)N1)[C@@H](C)O)C(C)C)[C@@H](C)CC)[C@@H](C)O)C(C)C)[C@@H](C)O)C(=O)NCC(=O)N1CCC[C@H]1C(=O)N[C@@H](CC(N)=O)C(=O)NCC(=O)N1C[C@H](O)C[C@H]1C(N)=O [compound 339] (H-GCRTGTCTVQWLAHQIYQFTDKDKDNVAPRTKIGPNG[Hyp]-NH2; disulfide 2-7; N-terminus assumed)
0.012,> 5000,1.000,CC[C@H](C)[C@H](NC(=O)[C@H](CCC(N)=O)NC(=O)[C@H](Cc1c[nH]cn1)NC(=O)[C@H](C)NC(=O)[C@H](CC(C)C)NC(=O)[C@H](CCCNC(=N)N)NC(=O)[C@H](CCC(N)=O)NC(=O)[C@@H](NC(=O)[C@@H](NC(=O)[C@@H]1CSSC[C@H](NC(=O)[C@@H](N)CCCCN)C(=O)N[C@@H](CC(N)=O)C(=O)N[C@@H]([C@@H](C)O)C(=O)N[C@@H](C)C(=O)N[C@@H]([C@@H](C)O)C(=O)N1)[C@@H](C)O)C(C)C)C(=O)N[C@@H](Cc1ccc(O)cc1)C(=O)N[C@@H](CCC(N)=O)C(=O)N[C@@H](Cc1ccccc1)C(=O)N[C@@H](CC(=O)O)C(=O)N[C@@H](CCCCN)C(=O)N[C@@H](CC(=O)O)C(=O)N[C@@H](CCCCN)C(=O)N[C@@H](CC(=O)O)C(=O)N[C@@H](CC(N)=O)C(=O)N[C@H](C(=O)N[C@@H](C)C(=O)N1CCC[C@H]1C(=O)N1CCC[C@H]1C(=O)N[C@H](C(=O)N[C@@H](CC(N)=O)C(=O)N[C@H](C(=O)NCC(=O)N[C@@H](CO)C(=O)N[C@@H](CC(N)=O)C(=O)NCC(=O)N1C[C@H](O)C[C@H]1C(N)=O)C(C)C)[C@@H](C)O)C(C)C [compound 65] (H-KCNTATCTVQRLAHQIYQFDKDKDNVAPPTNVGSNG[Hyp]-NH2; disulfide 2-7; N-terminus assumed)
